In the NIST ThermoML archive (doi:10.1016/j.tca.2019.01.016):
Numbers after ± are expanded uncertainties.

Conditions: 298 K; 101.33 kPa; Crystal; SIGMATEST 2.069 (Foerster) testing instrument - complex impedance measurements

electrical conductivity: 6.107e+07 ± 610000 S/m
Structure (SMILES): [Ag] [silver]
